Measured values: ChEMBL document CHEMBL6134828, “Discovery, synthesis, and biological mechanism evaluation of novel quinoline derivatives as potent NLRP3 inhibitors” (Eur J Med Chem, 2025)
Calls of active or inactive are those of the source. The rule behind the calls is not given here.

How the values were obtained:
[1] = target: NACHT, LRR and PYD domains-containing protein 3 (Mus musculus, UniProt Q8R4B8); assay: Inhibition of NLRP3 in mouse J774.A1 cells assessed as reduction IL-1beta release by ELISA; assay type: cell-based
Chain of NACHT, LRR and PYD domains-containing protein 3 (Q8R4B8 whole entry, the tested form may be a part): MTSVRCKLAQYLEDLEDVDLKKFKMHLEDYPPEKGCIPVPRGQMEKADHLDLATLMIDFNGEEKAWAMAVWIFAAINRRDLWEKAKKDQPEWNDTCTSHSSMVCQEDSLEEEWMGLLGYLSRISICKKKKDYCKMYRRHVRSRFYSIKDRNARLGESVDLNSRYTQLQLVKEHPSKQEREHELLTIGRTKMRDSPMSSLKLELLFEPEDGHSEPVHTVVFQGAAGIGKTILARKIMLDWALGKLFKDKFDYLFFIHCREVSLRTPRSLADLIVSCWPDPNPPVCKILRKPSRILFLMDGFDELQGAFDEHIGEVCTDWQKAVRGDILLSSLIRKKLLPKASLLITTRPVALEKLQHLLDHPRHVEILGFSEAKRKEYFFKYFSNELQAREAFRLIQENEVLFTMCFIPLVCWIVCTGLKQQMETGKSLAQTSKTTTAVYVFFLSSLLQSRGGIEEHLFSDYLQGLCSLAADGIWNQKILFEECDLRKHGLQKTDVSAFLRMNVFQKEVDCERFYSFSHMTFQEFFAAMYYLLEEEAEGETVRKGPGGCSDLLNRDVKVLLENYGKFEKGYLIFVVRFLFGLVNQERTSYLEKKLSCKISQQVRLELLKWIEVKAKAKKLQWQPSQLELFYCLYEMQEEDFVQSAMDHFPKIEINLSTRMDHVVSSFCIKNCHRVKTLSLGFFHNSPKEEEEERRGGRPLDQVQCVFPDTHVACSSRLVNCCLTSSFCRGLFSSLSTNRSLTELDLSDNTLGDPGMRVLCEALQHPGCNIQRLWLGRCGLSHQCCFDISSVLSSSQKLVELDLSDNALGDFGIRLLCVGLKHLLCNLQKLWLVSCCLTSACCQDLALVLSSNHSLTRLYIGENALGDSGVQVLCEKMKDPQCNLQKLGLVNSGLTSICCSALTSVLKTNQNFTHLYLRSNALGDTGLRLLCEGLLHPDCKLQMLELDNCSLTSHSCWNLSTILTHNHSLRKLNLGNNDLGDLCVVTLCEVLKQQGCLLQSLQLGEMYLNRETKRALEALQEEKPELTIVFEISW

[2] = target: NACHT, LRR and PYD domains-containing protein 3 (Mus musculus) (UniProt Q8R4B8); assay: Inhibition of NLRP3 inflammasome activation in LPS/nigericin-induced mouse J774.A1 cells assessed as inhibition of mature IL-1beta release at 0.2 to 3.2 uM by Western blot analysis; assay type: cell-based; conditions: dose 0.2-3.2 µM
Chain of NACHT, LRR and PYD domains-containing protein 3 (Mus musculus) (Q8R4B8 whole entry, the tested form may be a part): as above

[3] = test system: Mus musculus; assay: In vivo inhibition of NLRP3 in colonic tissue of DSS-induced ulcerative colitis male C57BL/6 mouse model at 7.5 to 30 mg/kg administered via oral gavage for 4 days by Western blot analysis; assay type: functional, organism-based; conditions: dose 7.5-30 mg/kg, time 4.0 day
[4] = test system: J774.A1; assay: Inhibition of NFkappaB signaling pathway in LPS-induced mouse J774.A1 cells assessed as reduction in IkappaBalpha phosphorylation at 3.2 uM pre-incubated with compound for 2 hrs followed by LPS-induction and measured after 5 hrs by Western blot analysis; assay type: cell-based; conditions: time 7.0 hrs
[5] = target: NACHT, LRR and PYD domains-containing protein 3 (Mus musculus) (UniProt Q8R4B8); assay: Inhibition of NLRP3 inflammasome activation in LPS/nigericin-induced mouse J774.A1 cells assessed as reduction in IL-1beta release by ELISA; assay type: cell-based; conditions: dose 0.125-4 µM
[6] = target: NLRP3-NEK7 (Mus musculus) (UniProt Q8R4B8+Q9ES74); assay: Inhibition of NLRP3/NEK7 protein-protein interaction in LPS/nigericin-induced mouse J774.A1 cells incubated for 6 hrs by coimmunoprecipitation analysis; assay type: cell-based
Chain of NLRP3-NEK7 (Mus musculus) (Q8R4B8 whole entry, looked up): as the sequence (Q8R4B8 whole entry, the tested form may be a part) above
Chain of NLRP3-NEK7 (Mus musculus) (Q9ES74 whole entry, looked up): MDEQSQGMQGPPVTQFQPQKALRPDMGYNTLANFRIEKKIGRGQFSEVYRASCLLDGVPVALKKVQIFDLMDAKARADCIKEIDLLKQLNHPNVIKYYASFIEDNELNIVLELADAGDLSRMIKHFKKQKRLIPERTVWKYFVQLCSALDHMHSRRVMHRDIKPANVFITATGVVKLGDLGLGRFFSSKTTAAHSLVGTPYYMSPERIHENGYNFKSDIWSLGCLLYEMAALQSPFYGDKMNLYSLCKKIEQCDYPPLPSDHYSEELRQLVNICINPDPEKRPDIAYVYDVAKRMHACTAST

[7] = test system: J774.A1; assay: Effect on phosphorylated p65 level in LPS-induced mouse J774.A1 cells at 0.2 to 3.2 uM pre-incubated with compound for 2 hrs followed by LPS-induction and measured after 5 hrs by Western blot analysis; assay type: functional, cell-based; conditions: dose 0.2-3.2 µM, time 7.0 hrs
[8] = target: NACHT, LRR and PYD domains-containing protein 3 (Mus musculus) (UniProt Q8R4B8); assay: Inhibition of NLRP3 inflammasome activation in LPS/nigericin-induced mouse J774.A1 cells assessed as inhibition of GSDMD cleavage at 0.2 to 3.2 uM by Western blot analysis; assay type: cell-based; conditions: dose 0.2-3.2 µM
[9] = test system: Mus musculus; assay: Antiinflammatory activity against DSS-induced ulcerative colitis male C57BL/6 mouse model assessed as reduction in caspase-1 level in colonic tissue at 7.5 to 30 mg/kg administered via oral gavage for 4 days by Western blot analysis; assay type: functional, organism-based; conditions: dose 7.5-30 mg/kg, time 4.0 day
[10] = test system: Mus musculus; assay: Antiinflammatory activity against DSS-induced ulcerative colitis male C57BL/6 mouse model assessed as reduction in cleaved GSDMD level in colonic tissue at 7.5 to 30 mg/kg administered via oral gavage for 4 days by Western blot analysis; assay type: functional, organism-based; conditions: dose 7.5-30 mg/kg, time 4.0 day
[11] = test system: J774.A1; assay: Effect on p65 level in LPS-induced mouse J774.A1 cells at 0.2 to 3.2 uM pre-incubated with compound for 2 hrs followed by LPS-induction and measured after 5 hrs by Western blot analysis; assay type: functional, cell-based; conditions: dose 0.2-3.2 µM, time 7.0 hrs
[12] = test system: Mus musculus; assay: Antiinflammatory activity against DSS-induced ulcerative colitis male C57BL/6 mouse model assessed as reduction in IL-1beta level in colonic tissue at 7.5 to 30 mg/kg administered via oral gavage for 4 days by ELISA; assay type: functional, organism-based; conditions: dose 7.5-30 mg/kg, time 4.0 day
[13] = test system: J774.A1; assay: Cytotoxicity against mouse J774.A1 cells at 0.4 to 6.4 uM incubated for 24 hrs by CCK-8 assay; assay type: toxicity, cell-based; conditions: j774.a1, 24 h, dose 0.4-6.4 µM
[14] = target: NACHT, LRR and PYD domains-containing protein 3 (Mus musculus) (UniProt Q8R4B8); assay: Inhibition of NLRP3 inflammasome activation in LPS/nigericin-induced mouse J774.A1 cells assessed as reduction in LDH level […]; assay type: cell-based; conditions: dose 0.2-3.2 µM
[15] = test system: HEK-293T; assay: Cytotoxicity against HEK293T cells at 0.4 to 6.4 uM incubated for 24 hrs by CCK-8 assay; assay type: toxicity, cell-based; conditions: human, dose 0.4-6.4 µM
[16] = target: NACHT, LRR and PYD domains-containing protein 3 (Mus musculus) (UniProt Q8R4B8); assay: Inhibition of NLRP3 inflammasome activation in LPS/nigericin-induced mouse J774.A1 cells assessed as inhibition of caspase-1 p20 subunit formation at 0.2 to 3.2 uM by Western blot analysis; assay type: cell-based; conditions: dose 0.2-3.2 µM
[17] = target: NACHT, LRR and PYD domains-containing protein 3 (Mus musculus) (UniProt Q8R4B8); assay: Inhibition of NLRP3 inflammasome activation in LPS/nigericin-induced mouse BMDM cells assessed as reduction in IL-1beta release by ELISA; assay type: cell-based; conditions: dose 0.125-4 µM
[18] = target: NACHT, LRR and PYD domains-containing protein 3 (Mus musculus) (UniProt Q8R4B8); assay: Inhibition of LPS/nigericin-induced NLRP3 oligomerization in mouse J774.A1 cells at 3.2 uM by SDS-PAGE analysis; assay type: cell-based
[19] = test system: J774.A1; assay: Effect on TNF-alpha secretion in LPS-induced mouse J774.A1 cells at 0.2 to 3.2 uM pre-incubated with compound for 2 hrs followed by LPS-induction and measured after 5 hrs by ELISA; assay type: functional, cell-based; conditions: dose 0.2-3.2 µM, time 7.0 hrs
[20] = test system: Mus musculus; assay: Antiinflammatory activity against DSS-induced ulcerative colitis male C57BL/6 mouse model assessed as amelioration of epithelial damage in colonic tissue at 7.5 to 30 mg/kg administered via oral gavage for 4 days; assay type: functional, organism-based; conditions: dose 7.5-30 mg/kg, time 4.0 day
[21] = test system: Mus musculus; assay: Antiinflammatory activity against DSS-induced ulcerative colitis male C57BL/6 mouse model assessed as amelioration of mucosal ulceration in colonic tissue at 7.5 to 30 mg/kg administered via oral gavage for 4 days; assay type: functional, organism-based; conditions: dose 7.5-30 mg/kg, time 4.0 day
[22] = target: T1, Apoptosis-associated speck-like protein containing a CARD (Mus musculus) (UniProt Q9EPB4); assay: Inhibition of LPS/nigericin-induced ASC oligomerization in mouse J774.A1 cells at 0.8 to 3.2 uM by immunoblot analysis; assay type: cell-based; conditions: dose 0.8-3.2 µM
T1 sequence (whole entry): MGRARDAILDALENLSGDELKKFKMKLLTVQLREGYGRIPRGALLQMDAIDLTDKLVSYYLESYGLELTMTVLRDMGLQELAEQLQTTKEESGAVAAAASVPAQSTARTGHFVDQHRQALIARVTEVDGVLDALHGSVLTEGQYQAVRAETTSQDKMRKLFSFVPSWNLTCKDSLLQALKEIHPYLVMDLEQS

[23] = test system: Mus musculus; assay: Antiinflammatory activity against DSS-induced ulcerative colitis male C57BL/6 mouse model assessed as reduction in fecal blood index at 7.5 to 30 mg/kg administered via oral gavage for 4 days; assay type: functional, organism-based; conditions: dose 7.5-30 mg/kg, time 4.0 day
[24] = target: NACHT, LRR and PYD domains-containing protein 3 (Mus musculus) (UniProt Q8R4B8); assay: Inhibition of NLRP3 inflammasome activation in LPS/nigericin-primed mouse BMDM cells assessed as inhibition of ASC speck formation incubated for 1 hr by DAPI staining based immunofluorescence analysis; assay type: cell-based
[25] = test system: Mus musculus; assay: Antiinflammatory activity against DSS-induced ulcerative colitis male C57BL/6 mouse model assessed as increase in colon length at 7.5 to 30 mg/kg administered via oral gavage for 4 days; assay type: functional, organism-based; conditions: dose 7.5-30 mg/kg, time 4.0 day
[26] = test system: Mus musculus; assay: Effect on DSS-induced body weight loss in male C57BL/6 mouse model of ulcerative colitis at 7.5 to 30 mg/kg administered via oral gavage for 4 days; assay type: functional, organism-based; conditions: dose 7.5-30 mg/kg, time 4.0 day
[27] = target: Nlrp3/Pycard (Mus musculus) (UniProt Q8R4B8+Q9EPB4); assay: Inhibition of NLRP3/ASC protein-protein interaction in LPS/nigericin-induced mouse J774.A1 cells at 3 uM by coimmunoprecipitation analysis; assay type: cell-based
Chain of Nlrp3/Pycard (Mus musculus) (Q8R4B8 whole entry, looked up, one chain of several): as the sequence (Q8R4B8 whole entry, the tested form may be a part) above

[28] = test system: Mus musculus; assay: Antiinflammatory activity against DSS-induced ulcerative colitis male C57BL/6 mouse model assessed as amelioration of crypt loss in colonic tissue at 7.5 to 30 mg/kg administered via oral gavage for 4 days; assay type: functional, organism-based; conditions: dose 7.5-30 mg/kg, time 4.0 day

## CCN(CC)CCCC(C)Nc1ccnc2cc(Cl)ccc12 (configuration not stated) [CHLOROQUINE]
[1]
  IC50: 87.9 µM

## CC[C@H](NC(=O)c1c(C)c(-c2cccc(F)c2)nc2ccc(OC)cc12)c1ccccc1
[1]
  IC50: 1.04 µM

## CC[C@H](NC(=O)c1c(C)c(-c2ccc(C(F)(F)F)cc2)nc2ccccc12)c1ccccc1
[1]
  IC50: 2.75 µM

## CC[C@H](NC(=O)c1c(C)c(-c2ccc(F)cc2)nc2ccccc12)c1ccccc1
[1]
  IC50: 1.12 µM

## O=C(NC1CC(F)(F)C1)c1cc(-c2ccccc2)nc2ccccc12
[1]
  IC50: 5.8 µM

## CC[C@H](NC(=O)c1ccnc2ccccc12)c1ccccc1
[1]
  IC50: 126 µM

## Cc1ccc(O)cc1NC(=O)c1cc(-c2ccccc2)nc2ccccc12
[1]
  IC50: 7.07 µM

## CC[C@H](NC(=O)c1c(C)c(-c2cccc(Cl)c2)nc2ccccc12)c1ccccc1
[1]
  IC50: 0.89 µM

## CC[C@H](NC(=O)c1c(C)c(-c2cccc(F)c2)nc2c([N+](=O)[O-])cccc12)c1ccccc1
[2]
  inhibition: Active
[3]
  inhibition: Active
[4]
  inhibition: Active; Slight Inhibitory Effect On P-Ikappabalpha
[5]
  inhibition: Dose-dependent-effect
[6]
  inhibition: inactive
[7]
  Activity: No effect
[8]
  inhibition: Active
[9]
  Activity: Active
[10]
  Activity: Active
[11]
  Activity: No effect
[12]
  Activity: Active
[13]
  Activity: Non-toxic
[14]
  inhibition: Dose-dependent-effect
[15]
  Activity: Non-toxic
[1]
  IC50: 0.18 µM
[16]
  inhibition: Active
[17]
  inhibition: Dose-dependent-effect
[18]
  inhibition: Active
[19]
  Activity: No effect
[20]
  Activity: Active
[21]
  Activity: Active
[22]
  inhibition: Active
[23]
  Activity: Active
[24]
  inhibition: Active
[25]
  Activity: Active
[26]
  Activity: No effect
[27]
  inhibition: Active
[28]
  Activity: Active

## O=C(N[C@@H]1CCc2ccccc21)c1cc(-c2ccccc2)nc2ccccc12
[1]
  IC50: 7.95 µM

## CC[C@H](NC(=O)c1c(C)c(-c2cccc(F)c2)nc2cc(OC)ccc12)c1ccccc1
[1]
  IC50: 1.2 µM

## CCC(C)NC(=O)c1cc(-c2ccccc2)nc2ccccc12 (configuration not stated)
[1]
  IC50: 39.5 µM

## O=C(Nc1ccccc1OCc1ccccc1)c1cc(-c2ccccc2)nc2ccccc12
[1]
  IC50: 77 µM

## CCN(CC)CCCC(C)NC(=O)c1cc(-c2ccccc2)nc2ccccc12 (configuration not stated)
[1]
  IC50: 11.4 µM

## CC[C@H](NC(=O)c1cc(-c2ccccc2)nc2ccccc12)c1ccccc1 [AZD-7624]
[1]
  IC50: 1.3 µM

## CC[C@H](NC(=O)c1c(C)c(-c2cccc(F)c2)nc2ccc(Br)cc12)c1ccccc1
[1]
  IC50: 1.21 µM

## COC(=O)[C@@H](NC(=O)c1cc(-c2ccccc2)nc2ccccc12)c1ccccc1
[1]
  IC50: 3 µM

## CC[C@H](NC(=O)c1c(C)c(-c2cccc(F)c2)nc2ccccc12)c1ccccc1
[6]
  inhibition: inactive
[13]
  Activity: Non-toxic
[1]
  IC50: 0.59 µM
[18]
  inhibition: Active
[22]
  inhibition: Active
[24]
  inhibition: Active
[27]
  inhibition: Active

## CC[C@H](NC(=O)c1cc(-c2cccc(F)c2)nc2ccccc12)c1ccccc1
[1]
  IC50: 2.82 µM
